Assay: Beaker Perhydrolysis Test (Sotax Dissolution Tester) of model detergent formulation containing the precursor material
Assay type: physicochemical
Conditions: for peroxyacid yield: percent of the theoretically available weight of peracid
Description: For the purpose of the present invention, unrestrained dissolution conditions are defined as those existing in the Beaker Perhydrolysis Test as carried out using a Sotax Dissolution Tester Model AT6 supplied by Sotax AG CH-4008 BASEL Switzerland. This Apparatus comprises an array of polycarbonate beakers, each capable of holding 1 litre of water, supported in a thermostatically controlled water bath. Each beaker is provided with a paddle stirrer whose speed can be controlled.
Add 5ml potassium iodide solution to the first titration beaker. • 7- Take a 10ml aliquot from Sotax beaker No. 1 and discharge into the first titration beaker at t=1 minute. • 8- Add the second sample to Sotax beaker No.2 at t= 1 minute and add 5 ml potassium iodide to a second titration beaker. • 9- Titrate the first aliquot against 0.005 M sodium thiosulphate solution until the solution is first decolourised (The colour is slowly regenerated as the solution warms and the perhydrate reacts with the iodide). • 10- Take a 10 ml aliquot from Sotax beaker No.2 at t= 2 minutes and discharge into the second titration beaker and repeat step . • 11- Take further aliquots at the following times (t= minutes)
The aliquots from Beaker No. 1 at 1 minute and from Beaker No. 2 at 2 minutes constitutes replicates and the results are averaged to give a figure from which the % perhydrolysis is calculated.
Material from each example was then incorporated into a model detergent formulation having the composition in % by weight.
The four formulations were then subjected to a Beaker Perhydrolysis Test as hereinbefore described and gave the peroxyacid yields shown in Table 1. Results are given for 1, 3, 5 & 10 minutes elapsed time and are expressed in percent of the theoretically available weight of peracid.

peroxyacid yield (3 minutes from start of perhydrolysis, Temperature = 30°C, hard water (25° Clarck)) [%] | peroxyacid yield (5 minutes from start of perhydrolysis, Temperature = 30°C, hard water (25° Clarck)) [%] | peroxyacid yield (10 minutes from start of perhydrolysis, Temperature = 30°C, hard water (25° Clarck)) [%] | perhydrolysis rate (effect of agglomeration with citric acid versus raw material form, 40°C) | peroxyacid yield (1 minute from start of perhydrolysis, Temperature = 40°C, water 12° Clark) [%] | peroxyacid yield (3 minutes from start of perhydrolysis, Temperature = 40°C, water 12° Clark) [%] | peroxyacid yield (5 minutes from start of perhydrolysis, Temperature = 40°C, water 12° Clark) [%] | peroxyacid yield (10 minutes from start of perhydrolysis, Temperature = 40°C, water 12° Clark) [%] | Compound
25 | 31 | 34 |  |  |  |  |  | CCCCCCCCCC(=O)NCCCCCC(=O)Oc1ccc(S(=O)(=O)O)cc1 [C10 oxybenzenesulfonate (raw material), (6-decanamido-caproyl) oxybenzenesulfonate]
 |  |  | No such enhancement | 14 | 37 | 52 | 71 | benzoyl caprolactam [3 (benzoyl caprolactam)]
